Measurements taken from ChEMBL document CHEMBL2346516, “Sponge-derived acetylenic alcohols, petrosiols, inhibit proliferation and migration of platelet-derived growth factor (PDGF)-induced vascular smooth muscle cells” (Bioorg Med Chem, 2013).
The source made the active and inactive calls. No cut-off for these calls is given here.

How the values were obtained:
[1] = tested on: HASMC; assay: Inhibition of PDGF-induced DNA synthesis in human HASMC assessed as decrease in [3H]thymidine incorporation after 20 hrs by microplate scintillation analysis; type: functional, cell-based
[2] = tested on: HASMC; assay: Inhibition of PDGF-induced actin filament dissociation in human HASMC at 2 to 4 uM after 24 hrs by Rhodamine-Phalloidin staining based fluorescence microscopy; type: functional, cell-based
[3] = tested on: HASMC; assay: Cytotoxicity against human HASMC assessed as effect on cell migration at 4 uM after 24 hrs by modified boyden chamber analysis; type: cell-based
[4] = tested on: HASMC; assay: Inhibition of PDGF-induced human HASMC migration at 4 uM after 24 hrs by modified boyden chamber analysis; type: functional, cell-based
[5] = molecular target: Platelet-derived growth factor receptor beta (Homo sapiens) (UniProt P09619); assay: Inhibition of PDGFRbeta in human HASMC assessed as decrease in PDGF-induced ERK1/2 phosphorylation at 1 to 4 uM after 5 to 15 mins by Western blot analysis
[6] = molecular target: Platelet-derived growth factor receptor beta (Homo sapiens) (UniProt P09619); assay: Inhibition of PDGFRbeta in human HASMC assessed as decrease in PDGF-induced Akt phosphorylation at 1 to 4 uM after 5 to 15 mins by Western blot analysis
[7] = molecular target: Platelet-derived growth factor receptor beta (Homo sapiens) (UniProt P09619); assay: Inhibition of PDGFRbeta in human HASMC assessed as decrease in PDGF-induced PLC-gamma1 phosphorylation at 1 to 4 uM after 5 to 15 mins by Western blot analysis
[8] = molecular target: Platelet-derived growth factor receptor beta (Homo sapiens) (UniProt P09619); assay: Inhibition of PDGF-induced PDGFRbeta phosphorylation in human HASMC after 5 to 15 mins by Western blot analysis
[9] = tested on: HASMC; assay: Increase in p27 expression in PDGF-stimulated human HASMC at 2 to 4 uM after 24 hrs by Western blot analysis; type: functional, cell-based
[10] = tested on: HASMC; assay: Increase in p21 expression in PDGF-stimulated human HASMC at 2 to 4 uM after 24 hrs by Western blot analysis; type: functional, cell-based
[11] = tested on: HASMC; assay: Inhibition of PDGF-induced CDK4 expression in human HASMC at 2 to 4 uM after 24 hrs by Western blot analysis; type: functional, cell-based
[12] = tested on: HASMC; assay: Inhibition of PDGF-induced cyclin D1 expression in human HASMC at 2 to 4 uM after 24 hrs by Western blot analysis; type: functional, cell-based
[13] = tested on: HASMC; assay: Inhibition of PDGF-induced cyclin E expression in human HASMC at 2 to 4 uM after 24 hrs by Western blot analysis; type: functional, cell-based
[14] = tested on: HASMC; assay: Inhibition of PDGF-induced CDK2 expression in human HASMC at 2 to 4 uM after 24 hrs by Western blot analysis; type: functional, cell-based
[15] = tested on: HASMC; assay: Cell cycle arrest in PGDF-stimulated human HASMC assessed as proportion of cells in S phase at 4 uM treated for 6 hrs prior to incubation with PDGF measured after 24 hrs by propidium iodide staining based flow cytometry (reference value: 20.8%); type: functional
[16] = tested on: HASMC; assay: Cell cycle arrest in PGDF-stimulated human HASMC assessed as proportion of cells in S phase at 2 uM treated for 6 hrs prior to incubation with PDGF measured after 24 hrs by propidium iodide staining based flow cytometry (reference value: 20.8%); type: functional
[17] = tested on: HASMC; assay: Cell cycle arrest in PGDF-stimulated human HASMC assessed as proportion of cells in S phase at 1 uM treated for 6 hrs prior to incubation with PDGF measured after 24 hrs by propidium iodide staining based flow cytometry (reference value: 20.8%); type: functional
[18] = tested on: HASMC; assay: Cytotoxicity against human HASMC assessed as effect on cell vaibility at 0.5 to 4 uM after 24 hrs by MTT assay; type: cell-based
[19] = tested on: HASMC; assay: Inhibition of PDGF-induced human HASMC proliferation after 24 hrs by trypan blue dye exclusion assay; type: functional, cell-based

Chain of Platelet-derived growth factor receptor beta (Homo sapiens) (P09619 whole entry): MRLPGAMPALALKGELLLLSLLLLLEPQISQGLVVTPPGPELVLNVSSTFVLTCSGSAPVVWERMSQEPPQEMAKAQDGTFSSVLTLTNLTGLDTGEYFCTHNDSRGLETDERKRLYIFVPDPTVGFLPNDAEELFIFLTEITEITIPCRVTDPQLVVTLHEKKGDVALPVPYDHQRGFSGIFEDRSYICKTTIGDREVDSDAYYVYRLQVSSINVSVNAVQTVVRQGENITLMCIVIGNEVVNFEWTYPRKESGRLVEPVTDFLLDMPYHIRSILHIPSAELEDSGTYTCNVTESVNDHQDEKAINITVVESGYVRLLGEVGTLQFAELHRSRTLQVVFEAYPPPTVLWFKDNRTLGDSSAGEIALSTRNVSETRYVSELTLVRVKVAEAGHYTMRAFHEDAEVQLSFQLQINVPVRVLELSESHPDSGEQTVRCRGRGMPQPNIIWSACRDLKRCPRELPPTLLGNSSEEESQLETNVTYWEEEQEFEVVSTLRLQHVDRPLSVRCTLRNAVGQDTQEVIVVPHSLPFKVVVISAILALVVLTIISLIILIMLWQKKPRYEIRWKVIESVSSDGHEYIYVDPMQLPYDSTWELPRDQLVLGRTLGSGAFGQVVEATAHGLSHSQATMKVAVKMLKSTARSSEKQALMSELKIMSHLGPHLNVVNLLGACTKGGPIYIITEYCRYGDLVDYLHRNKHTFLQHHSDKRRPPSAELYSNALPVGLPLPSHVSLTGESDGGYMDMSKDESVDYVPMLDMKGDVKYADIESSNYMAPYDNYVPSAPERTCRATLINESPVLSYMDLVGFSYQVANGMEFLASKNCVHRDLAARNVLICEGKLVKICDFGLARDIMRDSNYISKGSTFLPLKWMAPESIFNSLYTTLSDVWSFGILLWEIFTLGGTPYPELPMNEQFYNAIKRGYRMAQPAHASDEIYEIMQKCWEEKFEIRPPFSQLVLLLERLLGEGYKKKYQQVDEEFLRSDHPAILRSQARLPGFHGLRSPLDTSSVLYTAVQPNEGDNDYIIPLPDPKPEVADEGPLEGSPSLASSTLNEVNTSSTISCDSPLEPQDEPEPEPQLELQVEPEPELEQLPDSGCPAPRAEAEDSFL

CC(C)CCCCCC/C=C\CCCCCCC[C@H](O)[C@@H](O)[C@H](O)C#CC#CCO [PETROSIOL B]
IC50 [1]: 710 nM
inhibition [1]: Dose-dependent effect

CCCCCCCCC/C=C\CCCCCCC[C@H](O)[C@@H](O)[C@H](O)C#CC#CCO [PETROSIOL D]
IC50 [1]: 690 nM
inhibition [1]: Dose-dependent effect

CC(C)CCCCCCC#CCCCCCCCCC[C@@H](O)C#CC#CCO [STRONGYLODIOL D]
IC50 [1]: 2200 nM
inhibition [1]: Dose-dependent effect

CC(C)CCCCCC/C=C\CCCCCCCCC[C@@H](O)C#CC#CCO [STRONGYLODIOL C]
IC50 [1]: 1100 nM
inhibition [1]: Dose-dependent effect

C#C/C=C\CCCCCCCCCC/C=C\CCCCCCC[C@H](O)[C@@H](O)[C@H](O)C#CC#CCO [PETROSIOL C]
IC50 [1]: 720 nM
inhibition [1]: Dose-dependent effect

CCCCCCCC/C=C\CCCCCCC[C@H](O)[C@@H](O)[C@H](O)C#CC#CCO [PETROSIOL A]
inhibition [2]: Active
Activity [3]: Non-toxic
inhibition [4]: Active
inhibition [5]: Active
inhibition [6]: Active
inhibition [7]: Active
inhibition [8]: Dose-dependent effect
Activity [9]: Active
Activity [10]: Active
inhibition [11]: Active
inhibition [12]: Active
inhibition [13]: Active
inhibition [14]: Active
Activity [15]: 7.5%
Activity [16]: 10.1%
Activity [17]: 17.7%
Activity [18]: Non-toxic
IC50 [19]: 1000 nM
inhibition [19]: Dose-dependent effect
IC50 [1]: 730 nM
inhibition [1]: Dose-dependent effect
